Data as given in patent US4451465A, “Anti-obesity agents” (John Wyeth & Brother Ltd., priority 1981, dated 1984).

Legend:
male rats = test: chronic (28 day) administration to male rats: body weight and food intake; format: in vivo, rat; conditions: 28 days
Source text: The anti-obesity activity of (±)-2,3,4,10-tetrahydro-3,3-dimethyl-10-phenylpyrimido[1,2-a]indol-10-ol has been confirmed by chronic (28 day) administration to male rats. The animals were fed on a standard pelleted diet and the active agent was introduced into the water supply. Body weight, food and water intake and behaviour were monitored over the next four weeks.

[1] = target: BAT microsomal Na^+, K^+ -ATPase; test: stimulation of Na^+, K^+ -ATPase in BAT microsomal fraction; format: biochemical, rat (adult male Sprague-Dawley)
Method: (§1) In one procedure for testing for potential thermogenic activity the compounds are tested for their ability to inhibit noradrenaline uptake in rat brown adipose tissue (BAT). Compounds that have a specific thermogenic effect without having undesirable central effects should inhibit BAT noradrenaline (NA) uptake at lower concentrations than those required to inhibit corresponding NA uptake in the brain. In another procedure for testing for thermogenic activity the compounds are investigated for their effect on the activity of sodium potassium activated, magnesium dependent adenosinetriphosphatase (Na^+, K^+ -ATPase) in rat BAT fractions.
(§2) In the above mentioned procedures adult male Sprague-Dawley rats were used. Homogenates of BAT were prepared by homogenising interscapular BAT. Microsomal material was separated by centrifugation of the BAT homogenate. Measurement of NA uptake into BAT and brain slices was carried out using radiolabelled noradrenaline (based upon the procedure of Sugden, Br. J. Pharmac., 1974,51, 467-469). Adenosinetriphosphate activities were measured by monitoring the release of inorganic phosphate from ATP. Na^+, K^+ -ATPase was calculated as the difference between total and sodium ATPase.

[2] = tested on: noradrenaline (NA) uptake into brain slices; test: inhibition of noradrenaline uptake in brain slices; format: cell-based, rat (adult male Sprague-Dawley); conditions: mean ± S.E. mean of 6 experiments; rat brain slices
Method: as §1, §2

[3] = target: BAT homogenate Na^+, K^+ -ATPase; test: stimulation of Na^+, K^+ -ATPase in BAT homogenate; format: biochemical, rat (adult male Sprague-Dawley); conditions: for IC50: homogenate, read-out: IC50 for stimulation (to 50% maximum) of BAT Na^+,K-ATP-ase, homogenate
Method: as §1, §2

[4] = tested on: noradrenaline (NA) uptake in rat brown adipose tissue (BAT); test: inhibition of noradrenaline uptake in BAT; format: cell-based, rat (adult male Sprague-Dawley); conditions: for IC50: mean ± S.E. mean of 6 experiments, rat BAT
Method: In one procedure for testing for potential thermogenic activity the compounds are tested for their ability to inhibit noradrenaline uptake in rat brown adipose tissue (BAT). […] In another procedure for testing for thermogenic activity the compounds are investigated for their effect on the activity of sodium potassium activated, magnesium dependent adenosinetriphosphatase (Na^+, K^+ -ATPase) in rat BAT fractions.
as §2, with “Measurement of NA uptake into BAT and brain slices was carried out using radiolabelled noradrenaline (based upon the procedure of Sugden, Br. J. Pharmac., 1974,51, 467-469).” left out

brown adipose tissue = test: thermogenic activity (pharmacological testing); parameters: species or system rat; conditions: compared with corresponding (+)-enantiomers
Method: as §1, §2

rats [5] = test: resting metabolic rate (resting oxygen consumption) in rats; format: in vivo, rat
Source text: (§3) It is also known that there is a good correlation between BAT homogenate Na^+, K^+ -ATPase activity and the resting metabolic rate (see, for example, Rothwell, Stock and Wyllie, Biochem. Pharmacol., 1981, 30, 1709-1712) and those compounds, such as the agents of the present invention that activate BAT Na^+ K^+ -ATPase activity are indicated as useful as thermogenic agents and can be used in the treatment of obesity.

rats [6] = test: signs of CNS arousal in rats; format: in vivo, rat; conditions: dosages as high as 30 mg/kg p.o.
Source text: as §3

SMILES	weight gain compared to controls (male rats; 3.5 mg/kg/day in water supply)	weight gain compared to controls (male rats; 6.5 mg/kg/day in water supply)	body weight (male rats; 10.8 mg/kg/day in water supply)	food intake (male rats; 3.5, 6.5 and 10.8 mg/kg/day in water supply)	IC50 for stimulation (to 50% maximum) of BAT Na^+,K-ATP-ase, microsomal fraction [1]	IC50 [2] [nM]	IC50 [3] [nM]	IC50 [4] [nM]	activity as thermogenic agents, (-) versus (+)-enantiomers (brown adipose tissue)	direct stimulation of BAT microsomal Na^+, K^+ -ATPase ([1]; BAT microsomal)	resting metabolic rate (resting oxygen consumption) (rats [5])	signs of CNS arousal (rats [6])	stimulation of homogenate Na^+, K^+ -ATPase ([3]; BAT homogenate)	potency in inhibiting NA uptake into BAT versus brain slices ([4]; BAT compared with brain slices)
CC1(C)CN=C2N(C1)c1ccccc1C2(O)c1ccccc1 (racemic) [(±), (±)-2,3,4,10-tetrahydro-3,3-dimethyl-10-phenylpyrimido[1,2-a]indol-10-ol]	reduced weight gain	reduced weight gain	weight loss	no significant effect on food intake	none at 10^-4	3400	43	28						
CC1(C)CN=C2N(C1)c1ccccc1C2(O)c1ccccc1 (single isomer, unassigned; (-)) [(-), (-)-2,3,4,10-Tetrahydro-3,3-dimethyl-10-phenylpyrimido[1,2-a]indol-10-ol]					none at 10^-4	2400	32	18	more active, as thermogenic agents, than the corresponding (+)-enantiomers					
CC1(C)CN=C2N(C1)c1ccccc1C2(O)c1ccccc1 (stereo not drawn) [compound of the invention, 2,3,4,10-tetrahydro-3,3-dimethyl-10-phenylpyrimido[1,2-a]indol-10-ol]										did not directly stimulate	increases the resting metabolic rate	did not produce signs of CNS arousal	significant stimulation	considerably more potent in inhibiting NA uptake into BAT than into brain slices
